Here are results for two compounds from patent publication US7307091B2, “Deuterated 3-piperidinopropiophenone and medicaments containing said compounds” (BDD Berolina Drug Development GmbH, priority 2001, dated 2007).

Data set [1] addresses T1, CYP2C19 (Homo sapiens, UniProt P33261).
T1 construct: expressed in transfected cells; host or cells: cell line named only by the CYP it carries
The experiment in a line: In-vitro biological degradation by cytochrome P450 enzymes: CYP2C19. The format is in vitro ADME.

Data set [2] addresses T2, CYP2D6 (Homo sapiens, UniProt P10635).
T2 construct: expressed in transfected cells; host or cells: cell line named only by the CYP it carries
Put plainly: In-vitro biological degradation by cytochrome P450 enzymes: CYP2D6. The format is in vitro ADME.

In data set [3] the target is T3, CYP1A1 (Homo sapiens, UniProt P04798).
T3 construct: expressed in transfected cells; host or cells: cell line named only by the CYP it carries
T3 sequence (P04798 1-512): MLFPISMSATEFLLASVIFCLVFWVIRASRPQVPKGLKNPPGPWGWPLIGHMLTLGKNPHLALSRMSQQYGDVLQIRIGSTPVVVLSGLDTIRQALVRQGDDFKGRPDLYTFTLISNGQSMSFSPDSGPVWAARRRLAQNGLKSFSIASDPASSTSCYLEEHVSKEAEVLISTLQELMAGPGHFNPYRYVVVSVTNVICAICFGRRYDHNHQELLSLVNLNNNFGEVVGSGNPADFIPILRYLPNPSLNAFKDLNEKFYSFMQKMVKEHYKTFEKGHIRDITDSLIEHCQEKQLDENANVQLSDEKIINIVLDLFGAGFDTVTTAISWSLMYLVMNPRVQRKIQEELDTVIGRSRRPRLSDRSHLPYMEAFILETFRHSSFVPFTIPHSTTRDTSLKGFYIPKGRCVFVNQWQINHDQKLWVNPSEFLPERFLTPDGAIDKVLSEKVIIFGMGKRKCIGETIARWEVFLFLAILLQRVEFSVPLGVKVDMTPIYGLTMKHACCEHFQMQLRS
Put plainly: In-vitro biological degradation by cytochrome P450 enzymes: CYP1A1. In kind it is in vitro ADME. The following applies: 37° C., pH 7.4, 3 mM NADPH, protein 0.5 mg/mL; FIG. 1.

Data set [4] has as its target T4, CYP1A2 (Homo sapiens, UniProt P05177).
T4 construct: expressed in transfected cells; host or cells: cell line named only by the CYP it carries
T4 sequence (P05177 1-516): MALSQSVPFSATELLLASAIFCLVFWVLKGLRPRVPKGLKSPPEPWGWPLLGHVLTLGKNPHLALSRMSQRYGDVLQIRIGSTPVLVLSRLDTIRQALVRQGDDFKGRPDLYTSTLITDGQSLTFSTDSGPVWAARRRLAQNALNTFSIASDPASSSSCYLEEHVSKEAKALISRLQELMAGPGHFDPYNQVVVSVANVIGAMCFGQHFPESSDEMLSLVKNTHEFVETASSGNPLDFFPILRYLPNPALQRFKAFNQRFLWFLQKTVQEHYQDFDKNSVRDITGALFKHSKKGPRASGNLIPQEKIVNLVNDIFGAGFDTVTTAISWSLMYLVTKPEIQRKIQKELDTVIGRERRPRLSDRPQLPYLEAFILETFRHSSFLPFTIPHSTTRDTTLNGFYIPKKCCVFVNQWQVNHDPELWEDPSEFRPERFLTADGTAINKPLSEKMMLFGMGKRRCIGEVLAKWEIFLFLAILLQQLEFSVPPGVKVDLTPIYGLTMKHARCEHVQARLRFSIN
Put plainly: In-vitro biological degradation by cytochrome P450 enzymes: CYP1A2. The format is in vitro ADME. Particulars: 37° C., pH 7.4, 3 mM NADPH, protein 0.5 mg/mL; FIG. 1.

Data set [5] deals with T5, CYP2C8 (Homo sapiens, UniProt P10632).
T5 construct: expressed in transfected cells; host or cells: cell line named only by the CYP it carries
T5 sequence (P10632 1-490): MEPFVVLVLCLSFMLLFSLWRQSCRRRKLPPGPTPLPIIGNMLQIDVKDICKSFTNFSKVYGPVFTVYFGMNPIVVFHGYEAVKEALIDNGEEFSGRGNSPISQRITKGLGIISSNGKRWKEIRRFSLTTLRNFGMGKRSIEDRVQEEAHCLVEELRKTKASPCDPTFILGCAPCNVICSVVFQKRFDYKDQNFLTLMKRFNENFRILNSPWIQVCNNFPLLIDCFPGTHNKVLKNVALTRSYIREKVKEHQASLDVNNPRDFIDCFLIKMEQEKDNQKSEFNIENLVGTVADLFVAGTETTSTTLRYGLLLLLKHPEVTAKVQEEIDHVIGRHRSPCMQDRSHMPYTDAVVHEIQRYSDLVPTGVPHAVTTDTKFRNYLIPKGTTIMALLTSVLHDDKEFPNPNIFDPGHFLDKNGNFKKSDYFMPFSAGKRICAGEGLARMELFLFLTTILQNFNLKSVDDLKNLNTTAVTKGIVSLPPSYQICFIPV
Put plainly: In-vitro biological degradation by cytochrome P450 enzymes: CYP2C8. Particulars: 37° C., pH 7.4, 3 mM NADPH, protein 0.5 mg/mL; FIG. 1. In kind it is in vitro ADME.

The target of data set [6] is T6, CYP2E1 (Homo sapiens, UniProt P05181).
T6 construct: expressed in transfected cells; host or cells: cell line named only by the CYP it carries
T6 sequence (P05181 whole entry): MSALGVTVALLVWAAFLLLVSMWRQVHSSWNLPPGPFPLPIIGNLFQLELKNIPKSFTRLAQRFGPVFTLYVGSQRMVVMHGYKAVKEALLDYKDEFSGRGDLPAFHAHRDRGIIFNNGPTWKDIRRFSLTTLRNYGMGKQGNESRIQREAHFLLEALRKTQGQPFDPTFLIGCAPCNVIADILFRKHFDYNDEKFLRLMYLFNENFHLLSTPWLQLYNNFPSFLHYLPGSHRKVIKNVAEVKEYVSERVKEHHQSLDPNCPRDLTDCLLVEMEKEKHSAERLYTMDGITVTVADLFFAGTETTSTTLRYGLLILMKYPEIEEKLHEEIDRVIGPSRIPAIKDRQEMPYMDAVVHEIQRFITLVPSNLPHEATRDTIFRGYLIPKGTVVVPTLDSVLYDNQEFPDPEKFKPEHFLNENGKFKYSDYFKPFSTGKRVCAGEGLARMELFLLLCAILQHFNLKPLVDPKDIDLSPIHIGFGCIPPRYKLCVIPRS
The experiment in a line: In-vitro biological degradation by cytochrome P450 enzymes: CYP2E1. In kind it is in vitro ADME. Particulars: 37° C., pH 7.4, 3 mM NADPH, protein 0.5 mg/mL; FIG. 1.

Data set [7] has as its target T7, CYP3A4 (Homo sapiens, UniProt P08684).
T7 construct: expressed in transfected cells; host or cells: cell line named only by the CYP it carries
The experiment in a line: In-vitro biological degradation by cytochrome P450 enzymes: CYP3A4. The format is in vitro ADME. The following applies: 37° C., pH 7.4, 3 mM NADPH, protein 0.5 mg/mL; FIG. 1.

For data set [8] the following is noted: strong first-pass effect; background statement; cited from earlier work.
Setting [9] is: relative to tolperisone, FIG. 3.
[10] abbreviates: 37° C., pH 7.4, 3 mM NADPH, protein 0.5 mg/mL, LC/MS/MS, FIG. 1.
[11] abbreviates: primary metabolites formed by hydroxylation, FIG. 2.

T2 sequence (P10635 whole entry): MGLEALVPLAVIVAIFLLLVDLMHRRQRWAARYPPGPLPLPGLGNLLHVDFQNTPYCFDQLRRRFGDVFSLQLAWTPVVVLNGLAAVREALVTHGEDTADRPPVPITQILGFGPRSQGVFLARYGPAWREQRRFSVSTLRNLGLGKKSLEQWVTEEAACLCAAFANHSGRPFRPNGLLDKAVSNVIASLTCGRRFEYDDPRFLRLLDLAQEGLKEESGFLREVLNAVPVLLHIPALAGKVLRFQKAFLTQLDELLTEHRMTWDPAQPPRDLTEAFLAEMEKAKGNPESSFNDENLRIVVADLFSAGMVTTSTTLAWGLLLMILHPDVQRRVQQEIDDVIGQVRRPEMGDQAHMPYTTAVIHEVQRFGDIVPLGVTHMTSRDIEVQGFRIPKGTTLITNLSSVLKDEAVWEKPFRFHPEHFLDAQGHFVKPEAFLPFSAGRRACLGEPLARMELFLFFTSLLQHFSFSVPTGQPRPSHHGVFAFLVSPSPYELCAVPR
T1 sequence (P33261 whole entry): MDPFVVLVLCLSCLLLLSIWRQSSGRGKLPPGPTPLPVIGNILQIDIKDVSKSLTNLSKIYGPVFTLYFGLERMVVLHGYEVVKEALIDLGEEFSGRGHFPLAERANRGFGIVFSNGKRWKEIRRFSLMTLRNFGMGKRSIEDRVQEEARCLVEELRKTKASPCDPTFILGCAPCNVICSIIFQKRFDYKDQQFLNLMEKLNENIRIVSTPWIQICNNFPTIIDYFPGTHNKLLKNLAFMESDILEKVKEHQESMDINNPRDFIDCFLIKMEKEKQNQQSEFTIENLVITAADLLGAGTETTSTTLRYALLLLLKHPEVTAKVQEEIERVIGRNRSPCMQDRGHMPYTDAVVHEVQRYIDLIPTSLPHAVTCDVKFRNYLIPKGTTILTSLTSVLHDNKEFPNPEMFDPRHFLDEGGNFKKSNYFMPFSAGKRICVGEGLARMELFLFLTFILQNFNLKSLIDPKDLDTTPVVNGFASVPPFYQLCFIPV
T7 sequence (P08684 whole entry): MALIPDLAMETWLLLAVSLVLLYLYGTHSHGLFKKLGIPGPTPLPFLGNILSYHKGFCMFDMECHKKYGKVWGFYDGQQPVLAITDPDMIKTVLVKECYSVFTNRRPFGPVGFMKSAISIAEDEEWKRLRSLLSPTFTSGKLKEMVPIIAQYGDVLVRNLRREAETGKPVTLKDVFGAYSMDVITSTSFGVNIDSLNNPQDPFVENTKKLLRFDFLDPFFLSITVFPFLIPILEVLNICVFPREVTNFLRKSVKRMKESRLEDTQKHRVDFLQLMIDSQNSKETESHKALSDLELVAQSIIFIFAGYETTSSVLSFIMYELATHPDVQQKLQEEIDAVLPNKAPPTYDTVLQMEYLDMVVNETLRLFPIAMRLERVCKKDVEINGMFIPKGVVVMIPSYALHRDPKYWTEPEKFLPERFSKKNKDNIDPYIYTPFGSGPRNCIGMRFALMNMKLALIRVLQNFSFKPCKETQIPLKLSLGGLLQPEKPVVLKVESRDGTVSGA

As for `[2H]c1c([2H])c(C([2H])([2H])[2H])c([2H])c([2H])c1C(=O)C(C)CN1CCCCC1` (stereo not drawn) [I, 1-[4-(trideuteromethyl)tetradeuterophenyl]-2-methyl-3-piperidin-1-yl-1-propanone], the “factor by which enzymatic hydroxylation by CYP2C19 is retarded in comparison to tolperisone” value in data set [1] (setting [9]) came to 10. In data set [2] (setting [9]), the “factor by which enzymatic hydroxylation by CYP2D6 is retarded in comparison to tolperisone” value turned out to be 10.
For `Cc1ccc(C(=O)C(C)CN2CCCCC2)cc1` (stereo not drawn) [tolperisone], in data set [1] (setting [10]), the “enzymatic degradation (decrease in tolperisone concentration over time) by CYP2C19” value is “transformed above all”. Further, the “formation of hydroxy metabolites by CYP2C19” value in data set [1] (setting [11]) is reported as “to the same extent as the substrate is degraded”. The “enzymatic degradation (decrease in tolperisone concentration over time) by CYP2D6” value in data set [2] (setting [10]) is given as “transformed above all”. The “formation of hydroxy metabolites by CYP2D6” value in data set [2] (setting [11]) was “to the same extent as the substrate is degraded”. Besides, the “contribution to biological degradation by CYP1A1” value in data set [3] is listed as “contribute at most insignificantly”. In data set [4], the “contribution to biological degradation by CYP1A2” value is reported as “contribute at most insignificantly”. In addition, in data set [5], the “contribution to biological degradation by CYP2C8” value is on record as “contribute at most insignificantly”. In data set [6], the “contribution to biological degradation by CYP2E1” value is recorded as “contribute at most insignificantly”. Further, in data set [7], the “contribution to biological degradation by CYP3A4” value is given as “contribute at most insignificantly”. Further, the “fraction of the administered dose found unchanged in the blood” value in data set [8] is listed as “one-fifth”.
